Test results: patent US11982675B2, “Method of assessing ABC transporter activity using fluorescent dye accumulation assay” (CELLPHARMA KFT., priority 2017, dated 2024)
Substitutions are numbered along the chain they refer to.

Tests used:
Assay type in all cases: cell-based
[1] = molecular target: T1, ABCG2 (Homo sapiens, UniProt Q9UNQ0); assay: PhenGreen (PG) accumulation by flow cytometry, ABCG2-expressing PLB and A431 cells; design: expressed in transfected cells; host or cells: PLB-985 and A431 cells (retroviral transduction)
T1 sequence (Q9UNQ0 1-655): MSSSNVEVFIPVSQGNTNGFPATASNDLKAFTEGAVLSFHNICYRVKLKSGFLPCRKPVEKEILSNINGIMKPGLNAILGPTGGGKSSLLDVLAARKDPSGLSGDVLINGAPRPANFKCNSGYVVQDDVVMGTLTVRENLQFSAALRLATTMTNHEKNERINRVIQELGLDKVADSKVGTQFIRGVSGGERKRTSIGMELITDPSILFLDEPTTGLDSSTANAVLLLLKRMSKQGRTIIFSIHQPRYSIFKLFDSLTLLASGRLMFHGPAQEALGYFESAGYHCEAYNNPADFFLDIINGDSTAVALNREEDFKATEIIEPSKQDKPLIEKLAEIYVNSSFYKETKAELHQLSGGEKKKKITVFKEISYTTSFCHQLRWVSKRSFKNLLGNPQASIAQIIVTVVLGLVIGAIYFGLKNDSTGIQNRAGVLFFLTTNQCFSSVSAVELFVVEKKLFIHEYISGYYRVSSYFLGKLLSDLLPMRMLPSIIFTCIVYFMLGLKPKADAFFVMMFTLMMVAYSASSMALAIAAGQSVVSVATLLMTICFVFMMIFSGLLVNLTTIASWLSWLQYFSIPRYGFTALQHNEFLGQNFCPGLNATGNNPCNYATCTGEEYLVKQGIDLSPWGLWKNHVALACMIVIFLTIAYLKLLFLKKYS
Experimental: In order to follow the time-dependent accumulation of PG, 5×10^5 cells were washed twice with 1 mL DPBS (1 g/L D-glucose with phosphate buffered saline), then pre-incubated in the uptake buffer (1 mM EDTA in DPBS) for 10 minutes at 37° C. Thereafter the cells were incubated in the uptake buffer with various concentrations of PhenGreen SK diacetate (PGD), with or without transporter inhibitor, at 37° C., for 1-60 minutes. Dye uptake was stopped by the addition of 150 μl ice-cold EDTA-DPBS, the cells were kept on ice until the measurements (see FIG. 12.). For assessing the PGD concentration dependence of PG accumulation, 5×10^5 PLB-985 or A431 cells, expressing the ABCB1 or ABCG2 transporters, or HL-60 and HEK-293 cells, expressing ABCC1, were washed twice with 1 mL DPBS, then pre-incubated in EDTA-DPBS medium for 10 minutes at room temperature. The cells were incubated in EDTA-DPBS with 0.1-5 μM of PGD at 37° C. for 30 minutes. Dye uptake was stopped by the addition of 150 μl ice-cold EDTA-DPBS. The cells were kept on ice until the measurement.
(§1) The cells (5×10^5) were incubated with 0.5 μM PGD or 1 μM (Mx) with or without inhibitors, for 30 (PGD) or 60 (Mx) minutes at 37° C. The reaction was stopped by the addition of ice-cold EDTA-DPBS and fluorescence was measured as described above.
All experiments were performed at least three times. Data analysis was performed using FACSDiva v6.1.3 Software (BD Bioscience, San Jose, CA), flow cytometry figures were prepared with the Attune Acoustic Focusing Cytometer v1.25 Software (Applied Biosystems, Life Technologies, Carlsbad, CA, USA). Results were expressed as median±standard deviation. The MDR activity factor % (MAF %—see refs [Homolya L et al. Br J Cancer. 1996; Holló Z et al. Anticancer Res. 1998; 18: 2981-7., Sarkadi et al. U.S. Pat. No. 5,872,014 1999]) was calculated as follows: MAF %=(((MFIinh−MFI0)/MFIinh)×100), wherein MFIinh and MFI0 are the median fluorescence intensity (MFI) with (inh) or without (0) inhibitor. The EC50 analysis was carried out using the Origin 8.6. software.

[2] = molecular target: T2, ABCG2 (Homo sapiens, UniProt Q9UNQ0, K86M); assay: as above; conditions: PLB cells expressing ABCG2-K86M
T2 construct: expressed in transfected cells; host or cells: PLB-985 and A431 cells (retroviral transduction)
T2 sequence (Q9UNQ0 1-655 K86M): T1 sequence (Q9UNQ0 1-655) with K86M
Experimental: (§2) In order to follow the time-dependent accumulation of PG, 5×10^5 cells were washed twice with 1 mL DPBS (1 g/L D-glucose with phosphate buffered saline), then pre-incubated in the uptake buffer (1 mM EDTA in DPBS) for 10 minutes at 37° C. Thereafter the cells were incubated in the uptake buffer with various concentrations of PhenGreen SK diacetate (PGD), with or without transporter inhibitor, at 37° C., for 1-60 minutes. Dye uptake was stopped by the addition of 150 μl ice-cold EDTA-DPBS, the cells were kept on ice until the measurements (see FIG. 12.). […]
as §1
(§3) All experiments were performed at least three times. […] Results were expressed as median±standard deviation. The MDR activity factor % (MAF %—see refs [Homolya L et al. Br J Cancer. 1996; Holló Z et al. Anticancer Res. 1998; 18: 2981-7., Sarkadi et al. U.S. Pat. No. 5,872,014 1999]) was calculated as follows: MAF %=(((MFIinh−MFI0)/MFIinh)×100), wherein MFIinh and MFI0 are the median fluorescence intensity (MFI) with (inh) or without (0) inhibitor. […]

[3] = molecular target: T1, ABCG2; assay: PG accumulation examined by confocal microscopy in PLB and PLB-ABCG2 cells; design: expressed in transfected cells; host or cells: PLB-985 cells (retroviral transduction); conditions: PLB-ABCG2 cells, 0.5 μM PGD, 30 minutes, no inhibitor
Experimental: For confocal microscopy the cells (5×10^5) were washed twice with 1 mL DPBS, then pre-incubated with 1 μg/mL Alexa Fluor-647 conjugated wheat-germ agglutinin (WGA-A647) in uptake buffer for 5 minutes at room temperature. Thereafter the cells were incubated with 0.5 μM PGD with or without transporter inhibitors for 30 minutes at 37° C. PGD uptake was stopped by washing the cells with 1 mL DPBS. The images were acquired by a Zeiss LSCM 710 microscope using a 63×NA=1.4 Plan Apo objective. Images were captured and analyzed by Zen2 (Blue edition) Software.
In order to examine the wider applicability of the PGD-based assay for functional ABCG2 transporter studies, we examined PG accumulation in control PLB cells and in PLB cells expressing ABCG2, by using fluorescence (confocal) microscopy.
In these experiments, in order to label the plasma membrane compartment of the cells, we also included the staining of live PLB cells with a fluorescent anti-WGA antibody.

[4] = system: human peripheral blood mononuclear cells (PBMCs); assay: Functional test of ABCG2, ABCB1 or ABCC1 transporter function in PBMCs
Experimental: Freshly drawn venous blood samples were collected from healthy donors into EDTA coated tubes. Peripheral blood mononuclear cells (PBMCs) were isolated by Ficoll-histopaque density gradient centrifugation. The PBMCs were washed twice with 1 mL EDTA-DPBS uptake buffer (1 mM EDTA and 1 g/L D-glucose with phosphate buffered saline). The various cell populations can be stained with cluster of differentiation markers (CD markers), conjugated by e.g. APC, APC-Cy7, Pacific blue, or other fluorescent marker. After CD labeling the cells were incubated in the uptake buffer with 1 μM PhenGreen SK diacetate (PGD), or 0.25 μM Calcein-AM (CaAM) or 1 μM mitoxantrone (Mx), with or without selective transporter inhibitors, for 30 minutes (PGD and CaAM) or 60 minutes (Mx) at 37° C. […] The reaction was stopped by the addition of ice-cold EDTA-DPBS and fluorescence was measured as described above.
[…] cell populations, i.e. granulocytes, monocytes and lymphocytes have been visualized by flow cytometry as described in the Materials and Methods chapter (Panel A). […] MDR activity factors were calculated as described above based on the measurements of the accumulation of the three fluorescent dyes, with or without inhibitors, in the respective leukocyte populations (Panel C).

[5] = system: PLB, HEK or A431 cells; assay: Cell viability assay after PGD loading; conditions: PGD loading 30 min at 37° C.; PLB cells counted for 9 days, HEK or A431 cells cultured 72 hours
Experimental: Control and ABCG2 expressing PLB-985 cells (1×10^6) were pre-incubated in the uptake buffer for 10 minutes at 37° C., then incubated with or without 0.5 μM PGD for 30 minutes at 37° C. The PGD-treated cells were sorted based on PG fluorescence by FACS Aria III Cell sorter (BD Bioscience, San Jose, CA, with 488 nm blue laser excitation and 530/30 nm emission). The sorted cells were suspended in 3 mL RMPI media in 6 well plates and live cell number was measured each day, dead cells were excluded by TO-PRO™-3 Iodide.
In order to estimate the EC50 values, HEK or A431 cells were treated with […] for 30 min at 37° C. in the EDTA-DPBS buffer, then washed and cultured in 2 mL DMEM media in 12 well plates for 72 hours. […]
In the first set of these experiments (FIG. 7, Panel A) we used control and ABCG2 expressing PLB cells, incubated in the PGD loading media with or without 0.5 μM PGD for 30 minutes at 37° C. The PGD-treated cells were then sorted based on PG fluorescence by flow cytometry, and the cells were resuspended in RPMI media. […]
In the second set of experiments HEK or A431 cells were treated with the indicated concentrations of PGD for 30 min at 37° C. in the loading media, then washed and cultured in normal cell culturing media for 72 hours. Live cell number was determined by flow cytometry, dead cells excluded by TO-PRO-3 staining (see Methods). […]

[6] = molecular target: T3, ABCC1 (Homo sapiens, UniProt P33527); assay: PhenGreen (PG) accumulation by flow cytometry, ABCC1-expressing HL-60 and HEK cells
T3 construct: expressed in transfected cells; host or cells: HL-60 and HEK-293 cells (retroviral transduction)
Experimental: as §2, §1, §3

[7] = molecular target: T4, ABCB1 (Homo sapiens, UniProt P08183); assay: PhenGreen (PG) accumulation by flow cytometry, ABCB1-expressing PLB and A431 cells
T4 construct: expressed in transfected cells; host or cells: PLB-985 and A431 cells (retroviral transduction)
Experimental: as §2, §1, §3

[8] = molecular target: T1, ABCG2; assay: Mitoxantrone (MX) accumulation by flow cytometry, ABCG2-expressing PLB and A431 cells; design: expressed in transfected cells; host or cells: PLB-985 and A431 cells (retroviral transduction); conditions: control and ABCG2 expressing PLB and A431 cells, 1 μM MX, 60 minutes

T3 sequence (P33527 whole entry): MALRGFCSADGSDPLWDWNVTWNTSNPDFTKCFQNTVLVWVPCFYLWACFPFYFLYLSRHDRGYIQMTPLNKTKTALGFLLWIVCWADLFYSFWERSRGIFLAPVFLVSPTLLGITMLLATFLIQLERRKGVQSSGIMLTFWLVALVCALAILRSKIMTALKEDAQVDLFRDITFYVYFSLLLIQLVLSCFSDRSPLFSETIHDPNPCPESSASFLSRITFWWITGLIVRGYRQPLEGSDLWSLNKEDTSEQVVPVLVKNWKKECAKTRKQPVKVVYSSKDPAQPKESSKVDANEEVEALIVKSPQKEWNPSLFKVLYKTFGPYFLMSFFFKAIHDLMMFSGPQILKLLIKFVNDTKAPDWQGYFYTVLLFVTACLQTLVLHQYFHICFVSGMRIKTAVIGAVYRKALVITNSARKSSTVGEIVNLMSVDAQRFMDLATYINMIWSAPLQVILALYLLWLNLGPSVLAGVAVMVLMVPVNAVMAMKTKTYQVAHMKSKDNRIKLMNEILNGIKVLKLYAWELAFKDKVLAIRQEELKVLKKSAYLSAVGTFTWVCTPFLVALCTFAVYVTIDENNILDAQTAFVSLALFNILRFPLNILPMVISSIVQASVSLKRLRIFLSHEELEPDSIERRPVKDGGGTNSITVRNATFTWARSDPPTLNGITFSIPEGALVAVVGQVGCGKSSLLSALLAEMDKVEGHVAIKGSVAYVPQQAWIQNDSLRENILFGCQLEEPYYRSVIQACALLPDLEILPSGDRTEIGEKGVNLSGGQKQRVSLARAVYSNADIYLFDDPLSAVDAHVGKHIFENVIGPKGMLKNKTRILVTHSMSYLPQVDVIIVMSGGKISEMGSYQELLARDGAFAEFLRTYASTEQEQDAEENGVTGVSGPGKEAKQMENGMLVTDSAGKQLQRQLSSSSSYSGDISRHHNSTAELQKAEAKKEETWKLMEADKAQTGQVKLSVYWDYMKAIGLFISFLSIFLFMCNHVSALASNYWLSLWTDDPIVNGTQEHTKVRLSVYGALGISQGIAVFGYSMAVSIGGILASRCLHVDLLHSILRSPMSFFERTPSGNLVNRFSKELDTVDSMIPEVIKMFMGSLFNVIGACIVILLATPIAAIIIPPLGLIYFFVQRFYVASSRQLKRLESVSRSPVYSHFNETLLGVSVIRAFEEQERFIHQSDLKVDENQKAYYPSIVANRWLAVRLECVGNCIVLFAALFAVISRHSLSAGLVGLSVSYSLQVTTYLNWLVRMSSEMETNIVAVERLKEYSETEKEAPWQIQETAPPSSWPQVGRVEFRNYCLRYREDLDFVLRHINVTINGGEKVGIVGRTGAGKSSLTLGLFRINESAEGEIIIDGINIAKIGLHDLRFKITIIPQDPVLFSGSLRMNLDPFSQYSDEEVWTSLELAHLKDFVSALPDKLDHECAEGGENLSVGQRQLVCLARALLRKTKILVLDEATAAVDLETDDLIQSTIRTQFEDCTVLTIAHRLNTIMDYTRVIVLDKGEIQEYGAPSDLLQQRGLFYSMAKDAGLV
T4 sequence (P08183 whole entry): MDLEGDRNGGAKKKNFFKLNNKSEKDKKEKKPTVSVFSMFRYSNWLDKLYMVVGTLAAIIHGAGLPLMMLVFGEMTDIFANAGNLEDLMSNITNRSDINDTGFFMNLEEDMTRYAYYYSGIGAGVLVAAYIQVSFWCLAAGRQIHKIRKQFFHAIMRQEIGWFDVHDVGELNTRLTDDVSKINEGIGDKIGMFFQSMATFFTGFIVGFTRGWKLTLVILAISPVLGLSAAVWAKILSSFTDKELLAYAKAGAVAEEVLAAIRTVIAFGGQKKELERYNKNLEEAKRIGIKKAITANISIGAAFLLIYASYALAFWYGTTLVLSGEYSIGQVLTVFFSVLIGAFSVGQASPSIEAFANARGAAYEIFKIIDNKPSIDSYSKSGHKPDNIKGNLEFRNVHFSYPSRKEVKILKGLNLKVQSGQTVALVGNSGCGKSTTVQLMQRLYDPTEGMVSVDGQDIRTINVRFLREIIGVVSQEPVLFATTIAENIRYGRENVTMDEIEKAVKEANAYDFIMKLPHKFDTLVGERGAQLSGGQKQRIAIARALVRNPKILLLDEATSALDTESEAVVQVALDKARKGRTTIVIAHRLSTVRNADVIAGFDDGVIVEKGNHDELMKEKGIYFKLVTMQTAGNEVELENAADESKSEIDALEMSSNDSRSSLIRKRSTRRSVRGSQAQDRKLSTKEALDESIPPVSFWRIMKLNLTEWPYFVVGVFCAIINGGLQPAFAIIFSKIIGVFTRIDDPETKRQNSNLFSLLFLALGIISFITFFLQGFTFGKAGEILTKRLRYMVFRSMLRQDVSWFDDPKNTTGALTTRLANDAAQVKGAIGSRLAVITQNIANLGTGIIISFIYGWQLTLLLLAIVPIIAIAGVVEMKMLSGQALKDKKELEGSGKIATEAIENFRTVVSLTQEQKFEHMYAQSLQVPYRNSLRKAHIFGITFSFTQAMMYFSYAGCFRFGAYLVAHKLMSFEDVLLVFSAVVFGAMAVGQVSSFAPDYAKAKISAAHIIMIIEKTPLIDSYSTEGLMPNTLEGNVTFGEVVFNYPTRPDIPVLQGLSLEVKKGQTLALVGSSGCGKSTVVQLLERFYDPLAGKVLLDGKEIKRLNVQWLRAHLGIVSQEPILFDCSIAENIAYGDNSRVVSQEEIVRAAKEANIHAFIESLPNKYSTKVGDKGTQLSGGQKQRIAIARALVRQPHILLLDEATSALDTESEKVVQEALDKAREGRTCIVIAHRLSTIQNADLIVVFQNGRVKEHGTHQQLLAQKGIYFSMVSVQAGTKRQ

## PhenGreen SK [PG]
[1]; PLB cells expressing wild-type ABCG2
  MDR activity factor (MAF) from PG accumulation in absence or presence of Ko143: high activity level
[2]
  effect of non-functional catalytic mutant ABCG2-K86M on PG accumulation: no effect on PG accumulation
[3]
  cytoplasmic PG accumulation (confocal microscopy): practically did not accumulate PG

## CC(=O)Oc1cc2c(cc1Cl)C1(OC(=O)c3cc(C(=O)Nc4cc5cccnc5c5ncccc45)ccc31)c1cc(Cl)c(OC(C)=O)cc1O2 [PGD, PhenGreen SK diacetate]
[1]; PLB cells, 0.5 to 2.5 μM PGD in the media, 37° C.
  time in which the increase in cellular PG fluorescence saturated: less than 30 minutes
[1]; PLB vs PLB-ABCG2 cells, low (below 1 μM) PGD, 30 minutes at 37° C., flow cytometry
  effect of ABCG2 protein on accumulated PG fluorescence: major difference in the amount of the accumulated PG fluorescence
[4]; granulocytes, monocytes and lymphocytes, 1 μM PGD, 30 minutes at 37° C.
  transporter substrate activity in mononuclear cell populations: active substrate in each cell type
[4]; monocytes, ABCG2, ABCB1 and ABCC1 with selective inhibitors
  MAF factor compared with other dyes: higher MAF factor than Calcein AM and mitoxantrone for each of the transporters
[5]
  effect of PG accumulation on cell growth: no measurable effect on the growth of the cells
[6]; ABCC1 expressing HL-60 cells
  applicability for calculating the MDR activity factor, compared with mitoxantrone: similarly or better applicable than MX
[6]; HL-60 and HEK cells, 0.1-5 μM PGD, EDTA-DPBS, 30 minutes at 37° C.
  PG accumulation in ABCC1 expressing cells versus control parental cells: significantly lower levels of PG than their control parental cells
[7]; ABCB1 expressing PLB cells
  applicability for calculating the MDR activity factor, compared with mitoxantrone: similarly or better applicable than MX
[7]; PLB and A431 cells, 0.1-5 μM PGD, EDTA-DPBS, 30 minutes at 37° C.
  PG accumulation in ABCB1 expressing cells versus control parental cells: significantly lower levels of PG than their control parental cells

## O=C1c2c(O)ccc(O)c2C(=O)c2c(NCCNCCO)ccc(NCCNCCO)c21 [MX, mitoxantrone]
[8]
  MDR activity factor (MAF) based on MX extrusion: essentially similar results as obtained by using PG accumulation
